This test deals with Lactobacillus crispatus 262-1. The test can be described thus: Antibiotic sensitivity test, agar-diffusion paper-disc method. For Inhibition zone diameter: test concentration or dose not given here. The conditions noted are these: for Inhibition zone diameter: paper content/sheet per antibiotic as in Table 3; for Sensitivity determination: T0 generation, three levels: sensitivity, mediation, drug resistance, criteria of reference bacteria; for Sensitivity determination (passage stability test): embodiment 6. The format is cell-based. Background: Agar diffusion results depend on both activity and mobility in agar.

Positions of bridges follow the written chain, without caps; N, C: chain ends. Non-standard residues stand in square brackets, D forms with d. Residues, ends and D or L forms follow the SMILES beside them. *: point of attachment. Ileψ(thiazoline)Cys = CC[C@H](C)[C@H](N)C1=N[C@H](C(=O)*)CS1; dOrn = NCCC[C@@H](N)C(=O)O

Consider `CC1(C)S[C@@H]2[C@H](NC(=O)[C@H](N)c3ccc(O)cc3)C(=O)N2[C@H]1C(=O)O` [Amoxicillin], for which the Sensitivity determination result was “Sensitivity” and the “Sensitivity determination (passage stability test)” value is “mediation”. In addition, the Inhibition zone diameter (T0 generation of the strain) is reported as 20 mm. For the same molecule, the Sensitivity determination entry (listed as amoxicillin) is reported as “sensitivity”. Where the note is “T30 generation of the strain”, this molecule came in with an Inhibition zone diameter of 24 mm. The Inhibition zone diameter (T50 generation of the strain) was found to be 23 mm.
On to `CC1(C)S[C@@H]2[C@H](NC(=O)[C@H](N)c3ccccc3)C(=O)N2[C@H]1C(=O)O` [Ampicillin], for which the Sensitivity determination result is “Sensitivity” and the “Sensitivity determination (passage stability test)” value is reported as “mediation”. Further, the Inhibition zone diameter (T0 generation of the strain) is 24 mm. Besides, where the note is “listed as ampicillin”, the Sensitivity determination entry was “sensitivity”. The same molecule showed an Inhibition zone diameter (T30 generation of the strain) of 24 mm. Moreover, the Inhibition zone diameter (T50 generation of the strain) was 25 mm.
In the case of `CC[C@H]1OC(=O)[C@H](C)[C@@H](O[C@H]2C[C@@](C)(OC)[C@@H](O)[C@H](C)O2)[C@H](C)[C@@H](O[C@@H]2O[C@H](C)C[C@H](N(C)C)[C@H]2O)[C@](C)(O)C[C@@H](C)CN(C)[C@H](C)[C@@H](O)[C@]1(C)O` [Azithromycin], the Sensitivity determination result is listed as “Sensitivity”. The Inhibition zone diameter (T0 generation of the strain) was 31 mm. Moreover, the Sensitivity determination entry (listed as azithromycin) is “sensitivity”. The molecule further registered an Inhibition zone diameter (T30 generation of the strain) of 31 mm. The same molecule gave an Inhibition zone diameter (T50 generation of the strain) of 30 mm.
As to `CC[C@H](C)[C@H](N)C1=N[C@H](C(=O)N[C@@H](CC(C)C)C(=O)N[C@H](CCC(=O)O)C(=O)N[C@H](C(=O)N[C@H]2CCCCNC(=O)[C@H](CC(N)=O)NC(=O)[C@@H](CC(=O)O)NC(=O)[C@H](Cc3cnc[nH]3)NC(=O)[C@@H](Cc3ccccc3)NC(=O)[C@H]([C@@H](C)CC)NC(=O)[C@@H](CCCN)NC2=O)[C@@H](C)CC)CS1` [Bacitracin] ({Ileψ(thiazoline)Cys}-L[dE]IK[dOrn]I[dF]H[dD]N; lactam 4-C), the Sensitivity determination result was “drug resistance” and the “Sensitivity determination (passage stability test)” value is listed as “drug resistance”. The same molecule came in with an Inhibition zone diameter (T0 generation of the strain) of 0 mm. For the same molecule, the Inhibition zone diameter (T30 generation of the strain) was found to be 0 mm. In addition, the Inhibition zone diameter (T50 generation of the strain) worked out at 0 mm.
On to `CO/N=C(\C(=O)N[C@@H]1C(=O)N2C(C(=O)O)=C(CSc3nc(=O)c(=O)[nH]n3C)CS[C@H]12)c1csc(N)n1` [Ceftriaxone], for which the Sensitivity determination result was “Sensitivity” and the “Sensitivity determination (passage stability test)” value is “mediation”. The Inhibition zone diameter (T0 generation of the strain) amounted to 29 mm. Moreover, the Sensitivity determination result (listed as ceftriaxone) is reported as “sensitivity”. The Inhibition zone diameter (T30 generation of the strain) came to 31 mm. The same molecule yielded an Inhibition zone diameter (T50 generation of the strain) of 30 mm.
For the molecule `O=C(N[C@H](CO)[C@H](O)c1ccc([N+](=O)[O-])cc1)C(Cl)Cl` [Chloramphenicol], the Sensitivity determination entry is “Sensitivity”. This molecule also returned an Inhibition zone diameter (T0 generation of the strain) of 35 mm. Also, the Sensitivity determination result (listed as chloromycetin) was “sensitivity”. The molecule further had an Inhibition zone diameter (T30 generation of the strain) of 36 mm. Also, the Inhibition zone diameter (T50 generation of the strain) worked out at 35 mm.
For `CCC[C@@H]1C[C@@H](C(=O)N[C@@H]([C@H]2O[C@H](SC)[C@H](O)[C@@H](O)[C@H]2O)[C@H](C)Cl)N(C)C1` [Clindamycin], the Inhibition zone diameter reads like this: (T0 generation of the strain) 35 mm; (T30 generation of the strain) 37 mm; (T50 generation of the strain) 36 mm.
`CC[C@H]1OC(=O)[C@H](C)[C@@H](O[C@H]2C[C@@](C)(OC)[C@@H](O)[C@H](C)O2)[C@H](C)[C@@H](O[C@@H]2O[C@H](C)C[C@H](N(C)C)[C@H]2O)[C@](C)(O)C[C@@H](C)C(=O)[C@H](C)[C@@H](O)[C@]1(C)O` [Erythromycin]: the Sensitivity determination result was “Sensitivity”. For the setting “T0 generation of the strain”, this molecule displayed an Inhibition zone diameter of 36 mm. The Sensitivity determination result (listed as erythromycin) was “sensitivity”. For the same molecule, where the note is “T30 generation of the strain”, the Inhibition zone diameter stood at 41 mm. This molecule also yielded an Inhibition zone diameter (T50 generation of the strain) of 39 mm.
For `C[C@@H](O)[C@H]1C(=O)N2C(C(=O)O)=C(SCCN=CN)C[C@H]12` [Imipenem], the Inhibition zone diameter (T0 generation of the strain) is given as 40 mm, the Inhibition zone diameter (T30 generation of the strain) is reported as 40 mm and the Inhibition zone diameter (T50 generation of the strain) stood at 40 mm.
Take `NC[C@H]1O[C@H](O[C@H]2[C@H](O)[C@@H](O[C@H]3O[C@H](CO)[C@@H](O)[C@H](N)[C@H]3O)[C@H](N)C[C@@H]2N)[C@H](O)[C@@H](O)[C@@H]1O` [Kanamycin]: the Inhibition zone diameter by setting is: (T0 generation of the strain) 0 mm; (T30 generation of the strain) 0 mm; (T50 generation of the strain) 0 mm.
With `Cc1ncc([N+](=O)[O-])n1CCO` [Metronidazole], the Sensitivity determination result is recorded as “drug resistance” and the “Sensitivity determination (passage stability test)” value is listed as “drug resistance”. Moreover, the Inhibition zone diameter (T0 generation of the strain) was 0 mm. Also, under “T30 generation of the strain”, the Inhibition zone diameter turned out to be 0 mm. For the setting “T50 generation of the strain”, this molecule gave an Inhibition zone diameter of 0 mm.
For the molecule `CCN1CCN(C(=O)N[C@@H](C(=O)N[C@@H]2C(=O)N3[C@@H]2SC(C)(C)[C@@H]3C(=O)O)c2ccccc2)C(=O)C1=O` [Piperacillin], the Sensitivity determination entry is “Sensitivity”. For the setting “T0 generation of the strain”, this molecule displayed an Inhibition zone diameter of 35 mm. The Sensitivity determination result (listed as piperacillin) was “sensitivity”. The Inhibition zone diameter (T30 generation of the strain) came out at 37 mm. Also, the Inhibition zone diameter (T50 generation of the strain) was determined as 35 mm.
As for `CN(C)[C@@H]1C(O)=C(C(N)=O)C(=O)[C@@]2(O)C(O)=C3C(=O)c4c(O)cccc4[C@@](C)(O)[C@H]3C[C@@H]12` [Tetracycline], the Inhibition zone diameter is, setting by setting: (T0 generation of the strain) 38 mm; (T30 generation of the strain) 40 mm; (T50 generation of the strain) 39 mm.
Turning to `CN[C@H](CC(C)C)C(=O)N[C@H]1C(=O)N[C@@H](CC(N)=O)C(=O)N[C@H]2C(=O)N[C@H]3C(=O)N[C@H](C(=O)N[C@H](C(=O)O)c4cc(O)cc(O)c4-c4cc3ccc4O)[C@H](O)c3ccc(c(Cl)c3)Oc3cc2cc(c3O[C@@H]2O[C@H](CO)[C@@H](O)[C@H](O)[C@H]2O[C@H]2C[C@](C)(N)[C@H](O)[C@H](C)O2)Oc2ccc(cc2Cl)[C@H]1O` [Vancomycin], the Sensitivity determination entry was “Sensitivity” and the “Sensitivity determination (passage stability test)” value was “mediation”. This molecule also showed an Inhibition zone diameter (T0 generation of the strain) of 26 mm. Besides, under “listed as vancomycin”, the Sensitivity determination result was “sensitivity”. For the same molecule, under “T30 generation of the strain”, the Inhibition zone diameter is listed as 27 mm. For the same molecule, the Inhibition zone diameter (T50 generation of the strain) turned out to be 26 mm.
As to `Cc1onc(-c2ccccc2)c1C(=O)N[C@@H]1C(=O)N2[C@@H]1SC(C)(C)[C@@H]2C(=O)O` [oxacillin], the Sensitivity determination entry was “Mediation” and the “Sensitivity determination (passage stability test)” value is reported as “mediation”. Further, the Inhibition zone diameter (T0 generation of the strain) is given as 9 mm. In addition, for the setting “T30 generation of the strain”, the Inhibition zone diameter is 10 mm. For the setting “T50 generation of the strain”, this molecule yielded an Inhibition zone diameter of 9 mm.
For Gentamicin, the Sensitivity determination entry is listed as “drug resistance” and the “Sensitivity determination (passage stability test)” value is “drug resistance”. This molecule came in with an Inhibition zone diameter (T0 generation of the strain) of 0 mm. The Inhibition zone diameter (T30 generation of the strain) is given as 0 mm. This molecule also came in with an Inhibition zone diameter (T50 generation of the strain) of 0 mm.
As for Penicillin, the Sensitivity determination entry is “Mediation” and the “Sensitivity determination (passage stability test)” value was “mediation”. In addition, the Inhibition zone diameter (T0 generation of the strain) is listed as 24 mm. Also, the Sensitivity determination result (listed as penicillin) is “mediation”. This molecule also came in with an Inhibition zone diameter (T30 generation of the strain) of 25 mm. Also, the Inhibition zone diameter (T50 generation of the strain) is on record as 24 mm.

The values above are taken from US9937214B2, “Lactobacillus crispatus and application thereof” (priority 2013, dated 2018).
